Laboratory results reported in the supplement of paper PMC10307832.

What was measured:
Experiment in all cases: relative viability (nuclei count vs DMSO), 5 days (fraction); higher = more cells survive
NPK76-II-72-1 + OSI-027 = compound: CC1CC(=O)N(C2=CN=C(N=C2N1C3CCCC3)NC4=C(C=C(C=C4)C(=O)NC5CCN(CC5)C)OC)C [NPK76-II-72-1] + COc1cccc2cc(-c3nc([C@H]4CC[C@H](C(=O)O)CC4)n4ncnc(N)c34)[nH]c12 [OSI-027] (partner 0.5 µM)
Method in brief: (§1)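 Five library-drug doses in √10 steps were combined with a fixed anchor-drug dose, or a single drug was given alone, by pin tool to lung cancer cell lines in 1536-well plates the day after seeding. Nuclei were stained and counted after 5 days. Relative viability is the nuclei count in treated wells over that in vehicle wells, taken as the median of duplicate plates.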

[1] = compound: CC1CC(=O)N(C2=CN=C(N=C2N1C3CCCC3)NC4=C(C=C(C=C4)C(=O)NC5CCN(CC5)C)OC)C [NPK76-II-72-1] + O=C(CCCCCCC(=O)Nc1ccccc1)NO [Vorinostat] (partner 1 µM)
Method in brief: as §1

BI-2536 + Navitoclax = compound: CC[C@@H]1C(=O)N(C)c2cnc(Nc3ccc(C(=O)NC4CCN(C)CC4)cc3OC)nc2N1C1CCCC1 [BI-2536] + CC1(C)CCC(c2ccc(Cl)cc2)=C(CN2CCN(c3ccc(C(=O)NS(=O)(=O)c4ccc(N[C@H](CCN5CCOCC5)CSc5ccccc5)c(S(=O)(=O)C(F)(F)F)c4)cc3)CC2)C1 [Navitoclax] (partner 0.5 µM)
Method in brief: as §1

BI-2536 + Linsitinib = compound: CC[C@@H]1C(=O)N(C)c2cnc(Nc3ccc(C(=O)NC4CCN(C)CC4)cc3OC)nc2N1C1CCCC1 [BI-2536] + C[C@]1(O)C[C@@H](c2nc(-c3ccc4ccc(-c5ccccc5)nc4c3)c3c(N)nccn32)C1 [Linsitinib] (partner 1 µM)
Method in brief: as §1

| Cell Line | relative viability (NPK76-II-72-1 + OSI-027; first compound 0.01 µM) | relative viability (NPK76-II-72-1 + OSI-027; first compound 0.03162 µM) | relative viability (NPK76-II-72-1 + OSI-027; first compound 0.1 µM) | relative viability (NPK76-II-72-1 + OSI-027; first compound 0.3162 µM) | relative viability (NPK76-II-72-1 + OSI-027; first compound 1 µM) | relative viability ([1]; first compound 0.01 µM) | relative viability ([1]; first compound 0.03162 µM) | relative viability ([1]; first compound 0.1 µM) | relative viability ([1]; first compound 0.3162 µM) | relative viability ([1]; first compound 1 µM) | relative viability (BI-2536 + Navitoclax; first compound 0.01 µM) | relative viability (BI-2536 + Navitoclax; first compound 0.03162 µM) | relative viability (BI-2536 + Navitoclax; first compound 0.1 µM) | relative viability (BI-2536 + Navitoclax; first compound 0.3162 µM) | relative viability (BI-2536 + Navitoclax; first compound 1 µM) | relative viability (BI-2536 + Linsitinib; first compound 0.01 µM) | relative viability (BI-2536 + Linsitinib; first compound 0.03162 µM) | relative viability (BI-2536 + Linsitinib; first compound 0.1 µM) | relative viability (BI-2536 + Linsitinib; first compound 0.3162 µM) | relative viability (BI-2536 + Linsitinib; first compound 1 µM) |
| --- | --- | --- | --- | --- | --- | --- | --- | --- | --- | --- | --- | --- | --- | --- | --- | --- | --- | --- | --- | --- |
| LK-2 | 0.157 | 0.227 | 0.206 | 0.201 | 0.233 | 0.451 | 0.263 | 0.36 | 0.165 | 0.327 | 0.798 | 0.553 | 0.387 | 0.118 | 0.172 | 0.528 | 0.504 | 0.506 | 0.12 | 0.144 |
| LOU-NH91 | 0.667 | 0.704 | 0.713 | 0.654 | 0.813 | 0.89 | 0.935 | 0.763 | 0.814 | 1.06 | 0.673 | 0.53 | 0.648 | 0.316 | 0.261 | 0.968 | 0.925 | 1.04 | 0.691 | 0.289 |
| LU99A | 0.309 | 0.285 | 0.241 | 0.278 | 0.299 | 0.437 | 0.492 | 0.62 | 0.535 | 0.528 | 0.811 | 0.86 | 0.323 | 0.108 | 0.132 | 0.593 | 0.534 | 0.472 | 0.172 | 0.194 |
| LXF-289 | 0.704 | 0.849 | 0.684 | 0.763 | 0.783 | 0.772 | 0.714 | 0.703 | 0.655 | 0.756 | 0.949 | 0.858 | 0.658 | 0.064 | 0.0512 | 0.988 | 0.892 | 0.845 | 0.069 | 0.0799 |
| NCI-H23 | 0.649 | 0.649 | 0.568 | 0.585 | 0.71 | 0.609 | 0.657 | 0.637 | 0.515 | 0.627 | 0.894 | 0.632 | 0.567 | 0.192 | 0.127 | 0.536 | 0.542 | 0.644 | 0.191 | 0.138 |
| NCI-H322M | 0.558 | 0.593 | 0.534 | 0.56 | 0.672 | 0.886 | 0.808 | 0.861 | 1.01 | 0.913 | 1.3 | 1.29 | 1.2 | 0.608 | 0.333 | 0.921 | 0.835 | 1.04 | 0.668 | 0.339 |
| NCI-H441 | 0.596 | 0.73 | 0.561 | 0.579 | 0.788 | 0.64 | 0.839 | 0.881 | 0.881 | 0.851 | 0.705 | 0.449 | 0.152 | 0.152 | 0.178 | 0.521 | 0.575 | 0.321 | 0.126 | 0.133 |
